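Following 48 hours of exposure in 96-well plates, responses at five concentrations were used to interpolate endpoints linearly. GI50: concentration for 50% inhibition of growth. TGI is the concentration that stops growth completely.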 *1 amine or outer side, *2 acyl side, *3 side chain or, on linkers, in order; H or OH if unused. Where a SMILES comes first, the peptide text is derived from it. Bridges are numbered along the chain shown (N, C = ends). [ ]: non-standard residue; d: D form. The star is where a group is joined. Phe(3,5-F2) = N[C@@H](Cc1cc(F)cc(F)c1)C(=O)O; Pro(4R-Me) = C[C@H]1CN[C@H](C(=O)O)C1; aThr = C[C@H](O)[C@H](N)C(=O)O; Pip = O=C(O)[C@@H]1CCCCN1; X10 = Fc1cc(C2CC2)ccc1N*; Abu = CC[C@H](N)C(=O)O; CO = O=C([*:1])[*:2]
Assays:
Assay in all cases: inhibition of tumour cell growth, NCI panel, 48 h
A549 NSCLC = tested on: A549 NSCLC
HOP-92 NSCLC = tested on: HOP-92 NSCLC
KM12 colon = tested on: KM12 colon
SK-MEL-28 melanoma = tested on: SK-MEL-28 melanoma
OVCAR-5 ovarian = tested on: OVCAR-5 ovarian
T-47D breast = tested on: T-47D breast
LOX IMVI melanoma = tested on: LOX IMVI melanoma
HOP-62 NSCLC = tested on: HOP-62 NSCLC
OVCAR-4 ovarian = tested on: OVCAR-4 ovarian
MALME-3M melanoma = tested on: MALME-3M melanoma
SW-620 colon = tested on: SW-620 colon
BT-549 breast = tested on: BT-549 breast
CAKI-1 renal = tested on: CAKI-1 renal
SR leukemia = tested on: SR leukemia
SF-539 CNS = tested on: SF-539 CNS
786-0 renal = tested on: 786-0 renal
SNB-75 CNS = tested on: SNB-75 CNS
SNB-19 CNS = tested on: SNB-19 CNS
MDA-MB-231 breast = tested on: MDA-MB-231 breast
UO-31 renal = tested on: UO-31 renal
CCRF-CEM leukemia = tested on: CCRF-CEM leukemia
MOLT-4 leukemia = tested on: MOLT-4 leukemia
NCI/ADR-RES ovarian = tested on: NCI/ADR-RES ovarian
HCC-2998 colon = tested on: HCC-2998 colon
HS 578T breast = tested on: HS 578T breast
UACC-62 melanoma = tested on: UACC-62 melanoma
TK-10 renal = tested on: TK-10 renal
SF-268 CNS = tested on: SF-268 CNS
SK-MEL-2 melanoma = tested on: SK-MEL-2 melanoma
PC-3 prostate = tested on: PC-3 prostate

`CC[C@@H]1NC(=O)[C@@H]2CCCCN2C(=O)[C@@H]2CCCN2C(=O)[C@@H](NC(=O)[C@H](Cc2cc(F)cc(F)c2)NC(=O)Nc2ccc(C3CC3)cc2F)[C@H](C)OC(=O)[C@@H]2C[C@@H](C)CN2C1=O` ({X10-CO}-[Phe(3,5-F2)][aThr]P[Pip][Abu][Pro(4R-Me)]; ester 2-C) was tested, and the TGI (A549 NSCLC) was greater than 65000 nM, the GI50 (HOP-92 NSCLC) was 54.7 nM and the TGI (HOP-92 NSCLC) was 4060 nM. It also gave a GI50 (KM12 colon) of 258 nM, a TGI (KM12 colon) of 3860 nM and a GI50 (SK-MEL-28 melanoma) of 178 nM. It also gave a TGI (SK-MEL-28 melanoma) of 2420 nM, a GI50 (OVCAR-5 ovarian) of 67.9 nM and a TGI (OVCAR-5 ovarian) of 2630 nM. It also gave a GI50 (T-47D breast) of 62.7 nM, a TGI (T-47D breast) of 8160 nM and a GI50 (LOX IMVI melanoma) of 74.8 nM. It also gave a TGI (LOX IMVI melanoma) of 4380 nM, a GI50 (HOP-62 NSCLC) of 65.8 nM and a TGI (HOP-62 NSCLC) greater than 86200 nM. For the same molecule, the GI50 (OVCAR-4 ovarian) was 37.2 nM, the TGI (OVCAR-4 ovarian) was 3260 nM and the GI50 (MALME-3M melanoma) was 108 nM. It also gave a TGI (MALME-3M melanoma) of 2930 nM, a GI50 (SW-620 colon) of 67.9 nM and a TGI (SW-620 colon) greater than 43200 nM. The GI50 (BT-549 breast) was 90.5 nM, the GI50 (CAKI-1 renal) was 54.7 nM and the TGI (CAKI-1 renal) was 7250 nM. It also gave a GI50 (SR leukemia) of 115 nM, a TGI (SR leukemia) of 3380 nM and a GI50 (SF-539 CNS) of 137 nM. The TGI (SF-539 CNS) was 2460 nM, the GI50 (786-0 renal) was 205 nM and the TGI (786-0 renal) was 15800 nM. The GI50 (SNB-75 CNS) was 66.7 nM, the TGI (SNB-75 CNS) was 6190 nM and the GI50 (SNB-19 CNS) was 44.3 nM. It also gave a TGI (SNB-19 CNS) greater than 56500 nM, a GI50 (MDA-MB-231 breast) of 44.7 nM and a TGI (MDA-MB-231 breast) of 1500 nM. The GI50 (UO-31 renal) was 326 nM, the TGI (UO-31 renal) was 9470 nM and the GI50 (CCRF-CEM leukemia) was 60.3 nM. For the same molecule, the TGI (CCRF-CEM leukemia) was greater than 100000 nM, the GI50 (MOLT-4 leukemia) was 271 nM and the TGI (MOLT-4 leukemia) was greater than 30000 nM. It also gave a GI50 (NCI/ADR-RES ovarian) of 505 nM, a TGI (NCI/ADR-RES ovarian) greater than 38100 nM and a GI50 (HCC-2998 colon) of 61.9 nM. It also gave a TGI (HCC-2998 colon) of 1620 nM, a GI50 (HS 578T breast) of 83 nM and a TGI (HS 578T breast) of 4980 nM. The GI50 (UACC-62 melanoma) was 81.3 nM, the TGI (UACC-62 melanoma) was 2700 nM and the GI50 (TK-10 renal) was 954 nM. For the same molecule, the TGI (TK-10 renal) was greater than 39100 nM, the GI50 (SF-268 CNS) was 59.1 nM and the TGI (SF-268 CNS) was greater than 49600 nM. For the same molecule, the GI50 (SK-MEL-2 melanoma) was 90.2 nM, the TGI (SK-MEL-2 melanoma) was 2570 nM and the GI50 (PC-3 prostate) was 39.6 nM. For the same molecule, the TGI (PC-3 prostate) was 13000 nM.
